The values below come from ChEMBL document CHEMBL3804753, “Substituted quinolines as noncovalent proteasome inhibitors” (Bioorg Med Chem, 2016).

Activity calls are given as the source filed them. The calls are words filed in the database; no cut-off is given here.

The test has as its target T1, Proteasome Macropain subunit MB1 (Homo sapiens) (UniProt P28074).
T1 sequence (whole entry): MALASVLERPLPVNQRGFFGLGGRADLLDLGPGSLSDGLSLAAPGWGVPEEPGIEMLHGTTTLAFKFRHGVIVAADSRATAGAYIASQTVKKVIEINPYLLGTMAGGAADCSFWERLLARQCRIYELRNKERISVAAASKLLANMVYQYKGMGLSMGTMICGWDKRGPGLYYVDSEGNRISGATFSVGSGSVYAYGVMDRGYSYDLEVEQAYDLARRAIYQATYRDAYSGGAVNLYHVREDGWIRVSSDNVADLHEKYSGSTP
Briefly: Inhibition of human 20S proteasome chymotryptic-like activity using Suc-LLVY-AMC as substrate assessed as fluorescence quinching control by fluorescence assay.

For `Cc1cc(C)c2cc(-c3ccccc3)c(-c3ccccc3)nc2c1`, the inhibition entry is “inactive”.
